Results reported in paper PMC5651374 (Alzheimer's & Dementia : Translational Research & Clinical …, 2016).

Conditions: brain imaging

C[N+]1=C(C=CC=CC=C2N(CCCCCC(=O)ON3C(=O)CCC3=O)c3ccc4ccccc4c3C2(C)C)C(C)(C)c2c1ccc1ccccc21.[Cl-] [Cy5 dye, Cyanine5.5 NHS ester dye]
ability to cross the BBB, dye injected alone: could not on its own cross the BBB
